The source of these data is ChEMBL document CHEMBL2413076, “Synthesis and biological evaluation of ursolic acid-triazolyl derivatives as potential anti-cancer agents” (Eur J Med Chem, 2013).

Data set [1] deals with A549. Nature of the data set: Growth inhibition of human A549 cells assessed as dead cells at 10 uM after 48 hrs by sulforhodamine-B assay relative to control. It is filed as functional. Particulars: A549, 48 h, read-out: GI. On the technique in general: In SRB staining, fixed cells bind dye roughly in proportion to their protein.
The subject of data set [2] is HCT-116. The experiment in a line: Growth inhibition of human HCT116 cells assessed as dead cells at 50 uM after 48 hrs by sulforhodamine-B assay relative to control. The class given is functional. Particulars: HCT-116, 48 h, read-out: GI.
Data set [3] deals with MCF7. Nature of the data set: Growth inhibition of human MCF7 cells assessed as dead cells at 10 uM after 48 hrs by sulforhodamine-B assay relative to control. Particulars: MCF7, 48 h, read-out: GI. It is filed as functional.
For data set [4], the system named is A549. The experiment in a line: Growth inhibition of human A549 cells assessed as dead cells at 50 uM after 48 hrs by sulforhodamine-B assay relative to control. The class given is functional. The settings on record: A549, 48 h, read-out: GI.
The nature of data set [5]: Growth inhibition of human FR2 cells assessed as dead cells at 50 uM after 48 hrs by sulforhodamine-B assay relative to control. It is filed as cell-based. The settings on record: read-out: GI.
Data set [6] deals with A549. The experiment in a line: Growth inhibition of human A549 cells after 48 hrs by sulforhodamine-B assay. The settings on record: A549, 48 h. The class given is functional, cell-based.
For data set [7], the system named is THP-1. The experiment in a line: Growth inhibition of human THP1 cells assessed as dead cells at 50 uM after 48 hrs by sulforhodamine-B assay relative to control. It is filed as functional. The settings on record: THP-1, 48 h, read-out: GI.
Data set [8] deals with HCT-116. Nature of the data set: Growth inhibition of human HCT116 cells assessed as dead cells at 10 uM after 48 hrs by sulforhodamine-B assay relative to control. The class given is functional. Particulars: HCT-116, 48 h, read-out: GI.
Data set [9] relates to HCT-116. Nature of the data set: Growth inhibition of human HCT116 cells after 48 hrs by sulforhodamine-B assay. The class given is functional, cell-based. The settings on record: HCT-116, 48 h.
The subject of data set [10] is MCF7. The experiment in a line: Growth inhibition of human MCF7 cells after 48 hrs by sulforhodamine-B assay. It is filed as functional, cell-based. Particulars: MCF7, 48 h.
Data set [11] is described as follows: Growth inhibition of human FR2 cells assessed as dead cells at 10 uM after 48 hrs by sulforhodamine-B assay relative to control. Particulars: read-out: GI. It is filed as cell-based.
The test system of data set [12] is MCF7. The experiment in a line: Growth inhibition of human MCF7 cells assessed as dead cells at 50 uM after 48 hrs by sulforhodamine-B assay relative to control. Particulars: MCF7, 48 h, read-out: GI. It is filed as functional.
Data set [13] has as its system THP-1. The experiment in a line: Growth inhibition of human THP1 cells after 48 hrs by sulforhodamine-B assay. The class given is functional, cell-based. Particulars: THP-1, 48 h.
A short description of data set [14]: Growth inhibition of human FR2 cells after 48 hrs by sulforhodamine-B assay. The class given is cell-based. The settings on record: FR2, 48 h.
Data set [15] deals with THP-1. Nature of the data set: Growth inhibition of human THP1 cells assessed as dead cells at 10 uM after 48 hrs by sulforhodamine-B assay relative to control. It is filed as functional. Particulars: THP-1, 48 h, read-out: GI.

Consider `C[C@H]1[C@H](C)CC[C@]2(C(=O)O)CC[C@]3(C)C(=CC[C@@H]4[C@@]5(C)CC[C@H](O)C(C)(C)[C@@H]5CC[C@]43C)[C@H]12` [URSOLIC ACID], for which the inhibition of growth at 10 µM in [1] amounted to 28%; in data set [3] it was 36%; in [8], 55%; in data set [15], 31%. Moreover, the inhibition of growth at 50 µM in data set [2] amounted to 53%; in data set [4], 61%; in data set [7], 84%; in [12], 57%. For the same molecule, the inhibition at 48 h, 50 µM in [5] is 66%. The IC50 in data set [6] was found to be 33 µM; in data set [9], 42 µM; in data set [10], 37 µM; in [13], 9.1 µM; in data set [14], 31 µM. For the same molecule, the inhibition at 48 h, 10 µM in data set [11] stood at 31%.

As for `C[C@H]1[C@H](C)CC[C@]2(C(=O)OCc3cn(-c4ccc(CC#N)cc4)nn3)CC[C@]3(C)C(=CC[C@@H]4[C@@]5(C)CCC(=O)C(C)(C)[C@@H]5CC[C@]43C)[C@H]12`, the inhibition of growth at 10 µM in data set [1] turned out to be 13%; in data set [3], 17%; in data set [8] it was 44%; in data set [15], 32%. The inhibition of growth at 50 µM is 67% in data set [2], 26% in data set [4], 55% in data set [7] and 34% in [12]. Besides, the inhibition at 48 h, 50 µM in [5] was determined as 46%. In addition, the IC50 in [6] was above 100 µM; in data set [9] it was 19 µM; in data set [10] it was 79 µM; in [13], 37 µM; in data set [14], 46 µM. Besides, in [11], the inhibition at 48 h, 10 µM was 14%.

`C[C@H]1[C@H](C)CC[C@]2(C(=O)OCc3cn(-c4ccccc4Br)nn3)CC[C@]3(C)C(=CC[C@@H]4[C@@]5(C)CCC(=O)C(C)(C)[C@@H]5CC[C@]43C)[C@H]12`: the inhibition of growth at 10 µM in data set [1] was found to be 85%; in data set [3], 80%; in [8] it was 41%; in [15], 92%. Besides, the inhibition of growth at 50 µM in [2], in data set [4], in data set [7] and in [12] was 99% each time. Moreover, in [5], the inhibition at 48 h, 50 µM amounted to 99%. Further, the IC50 in data set [6] is 2.9 µM; in data set [9], 15 µM; in data set [10], below 0.1 µM; in data set [13] it was below 0.1 µM; in [14], 69 µM. The inhibition at 48 h, 10 µM in [11] is 2%.

Take `C[C@H]1[C@H](C)CC[C@]2(C(=O)OCc3cn(-c4ccccc4)nn3)CC[C@]3(C)C(=CC[C@@H]4[C@@]5(C)CCC(=O)C(C)(C)[C@@H]5CC[C@]43C)[C@H]12`: the inhibition of growth at 10 µM in data set [1] was 43%; in data set [3] it was 28%; in data set [8] it was 44%; in data set [15] it was 54%. Moreover, the inhibition of growth at 50 µM worked out at 78% in data set [2], 64% in [4], 83% in data set [7] and 51% in data set [12]. In data set [5], the inhibition at 48 h, 50 µM worked out at 45%. Moreover, the IC50 was found to be 24 µM in [6]; 14 µM in [9]; 39 µM in [10]; 11 µM in data set [13]; 82 µM in [14]. The inhibition at 48 h, 10 µM in data set [11] came to 12%.

Consider `C[C@H]1[C@H](C)CC[C@]2(C(=O)OCc3cn(-c4ccc(Br)cc4)nn3)CC[C@]3(C)C(=CC[C@@H]4[C@@]5(C)CCC(=O)C(C)(C)[C@@H]5CC[C@]43C)[C@H]12`, for which the inhibition of growth at 10 µM came to 45% in [1], 44% in data set [3], 80% in data set [8] and 74% in [15]. Besides, the inhibition of growth at 50 µM in [2] amounted to 92%; in [4] it was 63%; in [7], 95%; in data set [12], 78%. Moreover, the inhibition at 48 h, 50 µM in [5] is 93%. The IC50 in data set [6] turned out to be 18 µM; in data set [9], 1.7 µM; in data set [10], 15 µM; in data set [13], 1 µM; in data set [14] it was 19 µM. Besides, the inhibition at 48 h, 10 µM in data set [11] was found to be 58%.

Take `C[C@H]1[C@H](C)CC[C@]2(C(=O)OCc3cn(-c4ccccc4I)nn3)CC[C@]3(C)C(=CC[C@@H]4[C@@]5(C)CCC(=O)C(C)(C)[C@@H]5CC[C@]43C)[C@H]12`: the inhibition of growth at 10 µM in data set [1] came out at 43%; in data set [3], 54%; in data set [8], 44%; in [15], 56%. Besides, the inhibition of growth at 50 µM in [2] turned out to be 78%; in data set [4], 67%; in data set [7], 79%; in data set [12], 76%. Moreover, the inhibition at 48 h, 50 µM in data set [5] was found to be 56%. The IC50 in data set [6] was 19 µM; in data set [9] it was 15 µM; in [10], 13 µM; in data set [13] it was 9.4 µM; in data set [14] it was 35 µM. Further, in data set [11], the inhibition at 48 h, 10 µM came out at 36%.

With `C[C@H]1[C@H](C)CC[C@]2(C(=O)OCc3cn(-c4ccccc4[N+](=O)[O-])nn3)CC[C@]3(C)C(=CC[C@@H]4[C@@]5(C)CCC(=O)C(C)(C)[C@@H]5CC[C@]43C)[C@H]12`, the inhibition of growth at 10 µM in data set [1] was determined as 3%; in data set [3] it was 4%; in data set [8], 45%; in data set [15], 24%. Also, the inhibition of growth at 50 µM in data set [2] was 65%; in data set [4], 39%; in data set [7], 54%; in data set [12], 42%. Also, the inhibition at 48 h, 50 µM in data set [5] was determined as 12%. The IC50 in data set [6] is above 50 µM; in data set [9], 14 µM; in data set [10] it was above 50 µM; in [13], 48 µM; in data set [14], above 50 µM. In addition, the inhibition at 48 h, 10 µM in [11] was 9%.

For `COc1ccccc1-n1cc(COC(=O)[C@]23CC[C@@H](C)[C@H](C)[C@H]2C2=CC[C@@H]4[C@@]5(C)CCC(=O)C(C)(C)[C@@H]5CC[C@@]4(C)[C@]2(C)CC3)nn1`, the inhibition of growth at 10 µM is 79% in data set [1], 87% in [3], 77% in [8] and 82% in data set [15]. Further, the inhibition of growth at 50 µM in data set [2] was determined as 94%; in [4], 94%; in data set [7] it was 93%; in data set [12], 91%. Also, the inhibition at 48 h, 50 µM in data set [5] came out at 28%. Moreover, the IC50 is below 0.1 µM in data set [6]; 0.3 µM in data set [9]; below 0.1 µM in data set [10]; below 0.1 µM in data set [13]; above 50 µM in data set [14]. Also, the inhibition at 48 h, 10 µM in data set [11] turned out to be 5%.

One may read the IC50 as the midpoint of a concentration-inhibition curve.
